According to patent US5800838A, “Composition that inhibits or destroys at least one unicellular living organism containing fluorine F- and Lithium li+” (priority 1987, dated 1998):
Values after ≈ are worked out from the molar mass of the structure shown. Where two headings read alike, the source gives them in different places.

Tests used:
Format in all cases: cell-based
Group C streptococcus [1] = test: Activity on wild-type hospital strains responsible for skin infections; settings: for MIC: Streptococcus
Staphylococcus aureus [2] = test: as above
Escherichia coli [3] = test: as above; settings: for MIC: Escherichia coli, read-out: 100% inhibitory concentration
streptococcus group F = test: Phenotype of resistant wild-type hospital strains with activated antibiotics (Example 35); settings: Fli 4 ppm
Experimental: (§1) Strains Gram+ and Gram- (wild-type hospital) having a resistant phenotype vis a vis standard firstly and secondly used antibiotherapy were experimented on activated antibiotics.
(§2) 250 experiments were conducted on the following strains: Streptococcus group B, C, D, F, G, Staphylococcus aureus, Staphylococcus epidermitis, Klebsiella pneumoniae, Klebsiella spirochete, Klebsiella oxytoca, Proteus mirabilis, Serratia marcescens, Escherichia coli, Citrobacter freundii, Enterobacter cloacae, Enterobacter calcoaceticus, Salmonella spirochete, Salmonella typhimurium, Pseudomonas aeruginosa, Haemophilus influenzae, Haemophilus sphrophilus, Acinetobacter calcoaeticus. […]

Group C streptococcus [4] = test: Antibiotic activity of ampicillin (Example 24); settings: read-out: minimal inhibitory concentration
Pseudomonas aeruginosa = test: Antibiotic activity of ampicillin (Example 24); settings: read-out: minimal inhibitory concentration
Staphylococcus aureus [5] = test: Antibiotic activity of ampicillin (Example 24); settings: read-out: minimal inhibitory concentration
Streptococcus faecalis = test: Antibiotic activity of ampicillin (Example 24); settings: Enterococcus faecalis, read-out: minimal inhibitory concentration
Haemophilus influenzae = test: Antibiotic activity of ampicillin (Example 24); settings: read-out: minimal inhibitory concentration
Entrococcus faecium = test: Antibiotic activity of ampicillin (Example 24); settings: resistant to ampicillin, read-out: minimal inhibitory concentration
Escherichia coli [6] = test: Antibiotic activity of ampicillin (Example 24)
staphylococcus aeurus = settings: Fli 4 ppm
Experimental: as §1, §2

[7] = LiF 0.8 mg/l, multiresistant strains often producing beta-lactamase
[8] = alone, multiresistant strains often producing beta-lactamase

Compound: POLYMIXIN B
- 100% inhibitory concentration (Group C streptococcus [1]; alone): > 128 ppm
- 100% inhibitory concentration (Group C streptococcus [1]; in the presence of LiF 8 ppm): 64 ppm
- 100% inhibitory concentration (Staphylococcus aureus [2]; alone): > 128 ppm
- 100% inhibitory concentration (Staphylococcus aureus [2]; in the presence of LiF 2 ppm): 64 ppm
- 100% inhibitory concentration (Escherichia coli [3]; alone): > 128 ppm
- 100% inhibitory concentration (Escherichia coli [3]; in the presence of LiF 2 ppm): 64 ppm

Compound: CC1(C)S[C@@H]2[C@H](NC(=O)Cc3ccccc3)C(=O)N2[C@H]1C(=O)O [penicilline group G]
- phenotype in presence of Fli (streptococcus group F): the insensible phenotype was not changed

Compound: CC1(C)S[C@@H]2[C@H](NC(=O)[C@H](N)c3ccccc3)C(=O)N2[C@H]1C(=O)O [AMPICILLIN, ampicillin]
- MIC (Group C streptococcus [4]; [7]): 64 µg/mL (≈ 183 µM)
- MIC (Group C streptococcus [4]; LiF 1 mg/l): 8 µg/mL (≈ 22.9 µM)
- MIC (Group C streptococcus [4]; [8]): 256 µg/mL (≈ 733 µM)
- MIC (Group C streptococcus [4]; alone): 32 µg/mL (≈ 91.6 µM)
- MIC (Pseudomonas aeruginosa; [7]): 4 to 8 µg/mL (≈ 11.4 to 22.9 µM)
- MIC (Pseudomonas aeruginosa; LiF 5 mg/l): 4 to 8 µg/mL (≈ 11.4 to 22.9 µM)
- MIC (Pseudomonas aeruginosa; [8]): 16 to 32 µg/mL (≈ 45.8 to 91.6 µM)
- MIC (Pseudomonas aeruginosa; alone): 16 to 32 µg/mL (≈ 45.8 to 91.6 µM)
- MIC (Staphylococcus aureus [5]; [7]): 32 µg/mL (≈ 91.6 µM)
- MIC (Staphylococcus aureus [5]; LiF 1 mg/l, resistant to ampicillin, 10 strains): 64 µg/mL (≈ 183 µM)
- MIC (Staphylococcus aureus [5]; LiF 6 mg/l, resistant to ampicillin, strains producing beta-lactamase): 64 µg/mL (≈ 183 µM)
- MIC (Staphylococcus aureus [5]; [8]): > 128 µg/mL
- MIC (Staphylococcus aureus [5]; alone, resistant to ampicillin, 10 strains): > 128 µg/mL
- MIC (Staphylococcus aureus [5]; alone, resistant to ampicillin, strains producing beta-lactamase): > 128 µg/mL
- MIC (Streptococcus faecalis; ATCC25, LiF 5 mg/l, ATCC 25 212): 4 µg/mL (≈ 11.4 µM)
- MIC (Streptococcus faecalis; ATCC25, alone, ATCC 25 212): 8 µg/mL (≈ 22.9 µM)
- MIC (Streptococcus faecalis; LiF 5 mg/l, 10 wild-type strains): 2 µg/mL (≈ 5.72 µM)
- MIC (Streptococcus faecalis; alone, 10 wild-type strains): 4 to 8 µg/mL (≈ 11.4 to 22.9 µM)
- MIC (Haemophilus influenzae; [7]): 32 µg/mL (≈ 91.6 µM)
- MIC (Haemophilus influenzae; LiF 5 mg/l, resistant to ampicillin, 5 wild-type strains): 32 µg/mL (≈ 91.6 µM)
- MIC (Haemophilus influenzae; [8]): > 128 µg/mL
- MIC (Haemophilus influenzae; alone, resistant to ampicillin, 5 wild-type strains): > 128 µg/mL
- MIC (Entrococcus faecium; LiF 5 mg/l): 64 µg/mL (≈ 183 µM)
- MIC (Entrococcus faecium; alone): > 128 µg/mL
- MIC (Escherichia coli [6]; ATCC25, LiF 1 mg/l, ATCC 25 922, read-out: minimal inhibitory concentration): 2 µg/mL (≈ 5.72 µM)
- MIC (Escherichia coli [6]; ATCC25, alone, ATCC 25 922, read-out: minimal inhibitory concentration): 4 µg/mL (≈ 11.4 µM)
- MIC (Escherichia coli [6]; LiF 0.8 mg/l, multiresistant strains often producing beta-lactamase, read-out: minimal inhibitory concentration): 8 µg/mL (≈ 22.9 µM)
- MIC (Escherichia coli [6]; LiF 5 mg/l, 10 wild-type strains, read-out: minimal inhibitory concentration): 1 to 4 µg/mL (≈ 2.86 to 11.4 µM)
- MIC (Escherichia coli [6]; LiF 5 mg/l, resistant Escherichia coli, read-out: minimal inhibitory concentration): 8 µg/mL (≈ 22.9 µM)
- MIC (Escherichia coli [6]; alone, 10 wild-type strains, read-out: minimal inhibitory concentration): 2 to 8 µg/mL (≈ 5.72 to 22.9 µM)
- MIC (Escherichia coli [6]; alone, multiresistant strains often producing beta-lactamase, read-out: minimal inhibitory concentration): 64 µg/mL (≈ 183 µM)
- MIC (Escherichia coli [6]; alone, resistant Escherichia coli, read-out: minimal inhibitory concentration): 64 µg/mL (≈ 183 µM)

Compound: CC[C@H]1OC(=O)[C@H](C)[C@@H](O[C@H]2C[C@@](C)(OC)[C@@H](O)[C@H](C)O2)[C@H](C)[C@@H](O[C@@H]2O[C@H](C)C[C@H](N(C)C)[C@H]2O)[C@](C)(O)C[C@@H](C)C(=O)[C@H](C)[C@@H](O)[C@]1(C)O [ERYTHROMYCIN, erythromycin]
- MIC (Group C streptococcus [1]; read-out: 100% inhibitory concentration, alone): > 0.25 µg/mL
- MIC (Group C streptococcus [1]; read-out: 100% inhibitory concentration, in the presence of LiF 4 ppm): 0.125 µg/mL
- phenotype in presence of Fli (staphylococcus aeurus): the resistant phenotype was not changed
- MIC (Escherichia coli [3]; alone): > 64 µg/mL
- MIC (Escherichia coli [3]; in the presence of LiF 8 ppm): 32 µg/mL
